Measurements taken from publication PMC5854701 (Scientific Reports, 2018).

Assays:
[1] = test system: multiple strains of influenza A and B viruses; test: microbe, parasite or virus in culture; format: cell-based
A/WSN/33 (H1N1) [2] = test system: A/WSN/33 (H1N1)
[3] = test system: influenza B virus B/Wisconsin/1/2010 (Yamagata); test: in vitro; details: dog, MDCK
[4] = test system: influenza B virus B/Brisbane/60/2008 (Victoria); test: in vitro; details: dog, MDCK
in vitro [5] = details: dog
A/WSN/33 (H1N1) [6] = test system: A/WSN/33 (H1N1); remark: listed apart in the source
[7] = test system: A/California/07/2009 (H1N1)
[8] = test system: A/Denmark/524/2009 (H1N1)
[9] = test system: A/Washington/29/2009 (H1N1)
[10] = test system: B/Wisconsin/1/2010 (Yamagata)
[11] = test system: B/Brisbane/60/2008 (Victoria)
[12] = test system: A/Switzerland/9715293/2013 (H3N2)
[13] = test system: A/Denmark/528/2009 (H1N1)
[14] = test system: B/Memphis/20/1996 (Yamagata)
[15] = test system: B/Utah/09/2014 (Yamagata)
[16] = test system: B/Phuket/3073/2013 (Yamagata)
[17] = test system: influenza B virus B/Memphis/20/1996 (Yamagata); test: in vitro; details: dog, MDCK
[18] = test system: influenza B virus B/Utah/09/2014 (Yamagata); test: in vitro; details: dog, MDCK
[19] = test system: influenza B virus B/Phuket/3073/2013 (Yamagata); test: in vitro; details: dog, MDCK
in vitro [20] = details: human

O=c1[nH]c2ccccc2n1C1CCN(C(CCc2ccccc2)c2nnnn2-c2ccc3c(c2)OCCO3)CC1 (stereo not drawn) [Compound 5, 1‐(1‐{1‐[1‐(2,3‐dihydro‐1,4‐benzodioxin‐6‐yl)‐1,2,3,4‐tetrazol‐5‐yl]‐3‐phenylpropyl}piperidin‐4‐ yl)‐3 H‐1,3‐benzodiazol‐2‐one]
EC50 values against panel of influenza A and B viruses [1]: single to submicromolar
% plaque formation at 5 µM (A/WSN/33 (H1N1) [2]): 16.5 ± 1.2%
selectivity ratio [3]: 19.3
selectivity ratio [4]: 17.4
CC50 (in vitro [5]): 17.4 ± 1.2 µM

O=c1[nH]c2ccccc2n1C1CCN(C(c2ccc(-c3ccccc3)cc2)c2nnnn2-c2ccc3c(c2)OCCO3)CC1 (stereo not drawn) [Compound 9 f, 1‐[1‐({[1,1′‐biphenyl]‐4‐yl}[1‐(2,3‐dihydro‐1,4‐benzodioxin‐6‐yl)‐1 H‐1,2,3,4‐tetrazol‐5‐yl]methyl)piperidin‐4‐yl]‐2,3‐dihydro‐1 H‐1,3‐benzodiazol‐2‐one]
antiviral activity in plaque assay (in words) (A/WSN/33 (H1N1) [2]): not active

CCc1ccc(C(c2nnnn2-c2ccc3c(c2)OCCO3)N2CCC(n3c(=O)[nH]c4ccccc43)CC2)cc1 (stereo not drawn) [Compound 9 g, 1‐(1‐{[1‐(2,3‐dihydro‐1,4‐benzodioxin‐6‐yl)‐1 H‐1,2,3,4‐tetrazol‐5‐yl](4‐ethylphenyl)methyl}piperidin‐4‐yl)‐2,3‐dihydro‐1 H‐1,3‐benzodiazol‐2‐one]
antiviral activity in plaque assay (in words) (A/WSN/33 (H1N1) [2]): moderate antiviral activity

O=c1[nH]c2ccccc2n1C1CCN(C(c2ccncc2)c2nnnn2-c2ccc3c(c2)OCCO3)CC1 (stereo not drawn) [Compound 9 h, 1‐(1‐{[1‐(2,3‐dihydro-1,4-benzodioxin-6-yl)-1 H-1,2,3,4-tetrazol-5-yl](pyridin-4-yl)methyl}piperidin-4-yl)-2,3-dihydro-1 H-1,3-benzodiazol-2-one]
antiviral activity in plaque assay (in words) (A/WSN/33 (H1N1) [2]): moderate antiviral activity

O=c1[nH]c2ccccc2n1C1CCN(C(c2ccccc2OC(F)(F)F)c2nnnn2Cc2ccccc2)CC1 (stereo not drawn) [Compound 9 u, 1‐{1‐[(1‐benzyl‐1 H‐1,2,3,4‐tetrazol‐5‐yl)[2‐(trifluoromethoxy)phenyl]methyl]piperidin‐4‐yl}‐2,3‐dihydro‐1 H‐1,3‐benzodiazol‐2‐one]
% plaque formation at 5 µM (A/WSN/33 (H1N1) [2]): 22.7 ± 2.2%

CCC(c1nnnn1-c1ccc2c(c1)OCCO2)N1CCC(n2c(=O)[nH]c3ccccc32)CC1 (stereo not drawn) [Compound 9d, 1‐(1‐{1‐[1‐(2,3‐dihydro‐1,4‐benzodioxin‐6‐yl)‐1 H‐1,2,3,4‐tetrazol‐5‐yl]propyl}piperidin‐4‐yl)‐2,3‐dihydro‐1 H‐1,3‐benzodiazol‐2‐one]
antiviral activity in plaque assay (in words) (A/WSN/33 (H1N1) [2]): moderate antiviral activity

O=c1[nH]c2ccccc2n1C1CCN(C(Cc2ccccc2)c2nnnn2-c2ccc3c(c2)OCCO3)CC1 (stereo not drawn) [Compound 9e, 1‐(1‐{1‐[1‐(2,3‐dihydro‐1,4‐benzodioxin‐6‐yl)‐1 H‐1,2,3,4‐tetrazol‐5‐yl]‐2‐phenylethyl}piperidin‐4‐yl)‐2,3‐dihydro‐1 H‐1,3‐benzodiazol‐2‐one]
antiviral activity in plaque assay (in words) (A/WSN/33 (H1N1) [2]): moderate antiviral activity

CC(C)c1ccc(C(c2nnnn2-c2ccc3c(c2)OCCO3)N2CCC(n3c(=O)[nH]c4ccccc43)CC2)cc1 (stereo not drawn) [Compound 9j, 1‐(1‐{[1‐(2,3‐dihydro‐1,4‐benzodioxin‐6‐yl)‐1 H‐1,2,3,4‐tetrazol‐5‐yl][4‐(propan‐2‐yl)phenyl]methyl}piperidin‐4‐yl)‐2,3‐dihydro‐1 H‐1,3‐benzodiazol‐2‐one]
antiviral activity in plaque assay (in words) (A/WSN/33 (H1N1) [2]): not active

O=c1[nH]c2ccccc2n1C1CCN(C(c2ccsc2)c2nnnn2Cc2ccccc2)CC1 (stereo not drawn) [Compound 9p, 1‐{1‐[(1‐benzyl‐1 H‐1,2,3,4‐tetrazol‐5‐yl)(thiophen‐3‐yl)methyl]piperidin‐4‐yl}‐2,3‐dihydro‐1 H‐1,3‐benzodiazol‐2‐one]
% plaque formation at 5 µM (A/WSN/33 (H1N1) [2]): 12.3 ± 2.1%

C[C@@H](c1ccccc1)n1nnnc1[C@H](c1ccsc1)N1CCC(n2c(=O)[nH]c3ccccc32)CC1 [Compound 12a, 1‐{1‐[(S)‐{1‐[(1 S)‐1‐phenylethyl]‐1 H‐1,2,3,4‐tetrazol‐5‐yl}(thiophen‐3‐yl)methyl]piperidin‐4‐yl}‐2,3‐dihydro‐1 H‐1,3‐benzodiazol‐2‐one]
effect of pre-treatment of cells on viral replication (A/WSN/33 (H1N1) [6]): little to no effect on viral replication
efficacy when added at later stages of viral replication (A/WSN/33 (H1N1) [6]): gradually decreased
EC50 ([1]; […], read-out: EC50 values against panel of influenza A and B viruses): 0.6 to 2.7 µM
SI (selectivity index), A549 (A/WSN/33 (H1N1) [2]): >214.3/140.1
SI (selectivity index), A549 [7]: >115.4/75.5
SI (selectivity index), A549 [8]: >187.5/122.6
SI (selectivity index), A549 (A/Texas/04/2009 (H1N1)): >136.4/89.2
SI (selectivity index), A549 [9]: >166.7/109.0
SI (selectivity index), A549 [10]: >187.5/122.6
SI (selectivity index), A549 [11]: >250/163.5
SI (selectivity index), A549 [12]: >107.1/70.1
SI (selectivity index), A549 [13]: >166.7/109.0
SI (selectivity index), A549 [14]: >55.6/36.3
SI (selectivity index), A549 [15]: >100/65.4
SI (selectivity index), A549 [16]: >125/81.8
selectivity ratio [3]: > 188
selectivity ratio [4]: > 250
selectivity ratio [17]: > 55.6
selectivity ratio [18]: > 100
selectivity ratio [19]: > 125
CC50 (in vitro [5]): > 150 µM
CC50 (in vitro [20]): 98.1 ± 2.5 µM

C[C@@H](c1ccccc1)n1nnnc1[C@@H](c1ccsc1)N1CCC(n2c(=O)[nH]c3ccccc32)CC1 [Compound 12b, 1‐{1‐[(R)‐{1‐[(1 S)‐1‐phenylethyl]‐1 H‐1,2,3,4‐tetrazol‐5‐yl}(thiophen‐3‐yl)methyl]piperidin‐4‐yl}‐2,3‐dihydro‐1 H‐1,3‐benzodiazol‐2‐one]
antiviral activity in plaque assay (in words) (A/WSN/33 (H1N1) [2]): not active

Cc1onc(-c2ccccc2)c1C(=O)N1CCN(c2ccc([N+](=O)[O-])cc2Cl)CC1 [Nucleozin, reference compound]
% plaque formation (A/WSN/33 (H1N1) [2]): 0%

Oseltamivir carboxylate [reference compound]
antiviral activity when added 8 h post viral infection (A/WSN/33 (H1N1) [6]): retained potent antiviral activity
% plaque formation (A/WSN/33 (H1N1) [2]): 11.1 ± 2.1%
